Laboratory results reported in patent US20080188493A1 (priority 2005, published 2008).

Key:
Pyrenophora teres = experiment: Activity against net blotch of barley caused by Pyrenophora teres, 1 day protective application (comparative test); type: in vivo; conditions: potted barley seedlings, sprayed 24 h before inoculation; visual % infection of entire leaf area after 6 days; concentration not given; untreated 90%
Description: The active compounds were prepared as a stock solution comprising 25 mg of active compound which was made up to 10 ml using a mixture of acetone and/or DMSO and the emulsifier Uniperol® EL (wetting agent having emulsifying and dispersing action based on ethoxylated alkylphenols) in a volume ratio of solvent/emulsifier of 99/1. The mixture was then made up to 100 ml with water. This stock solution was diluted with the solvent/emulsifier/water mixture described to the concentration of active compound stated below.
Comparative test—Activity against net blotch of barley caused by Pyrenophora teres, 1 day protective application
Leaves of potted barley seedlings were sprayed to runoff point with an aqueous suspension having the concentration of active compound stated below. 24 hours after the spray coating had dried on, the test plants were inoculated with an aqueous spore suspension of Pyrenophora [syn. Drechslera] teres, the net blotch pathogen. The test plants were then placed in a greenhouse at temperatures between 20 and 24° C. and 95 to 100% relative atmospheric humidity. After 6 days, the extent of the development of the disease was determined visually in % infection of the entire leaf area.

Row | Compound | Infection in % (Pyrenophora teres) [%] | melting point [°C]
1 | C=CCCCCc1c(C)nc2cc(C)nn2c1N [I-1] | 40 | 178 to 179
2 | CCCCCCc1c(C)nc2cc(C)nn2c1N [compound 30, reference compound] | 90 | –
